Key:
[1] = cited from earlier work
[2] = Aqueous solubility (salt screen); details: target 10 mg/ml at 25° C. unbuffered
db/db mouse = experiment: Murine model of type 2 diabetes mellitus (db/db mouse); type: in vivo; details: MLA 3 mg/kg daily by gavage with 1.0 mg/kg test article
From the text: The db/db mouse, a well established model of type 2 diabetes mellitus, is a leptin-deficient mutant that expresses an obese phenotype and also commonly expresses metabolic symptoms including hyperglycemia, hyperlipidemia and hyperinsulinemia (Halaas et al., 1995 and Lee et al., 1996). This experimental animal model of diabetes was employed in a study designed to determine the effects of (2S,3R)—N-2-((3-pyridinyl)methyl)-1-azabicyclo[2.2.2]oct-3-yl)-3,5-difluorobenzamide on body mass and several additional metabolic parameters.
In this study, (2S,3R)—N-2-((3-pyridinyl)methyl)-1-azabicyclo[2.2.2]oct-3-yl)-3,5-difluorobenzamide was repeatedly administered orally (via gavage) at 1.0 mg/kg once daily starting from the age of approximately 3 weeks and continuing throughout the 7-week study. Nondiabetic heterozygote littermate mice (db/+; designated “Db”) were used as controls. Body weight and food intake were determined twice weekly. The α7 antagonist methyllycaconitine (MLA) was also given concurrently via gavage at 3 mg/kg daily to selected cohorts of db/db (designated “db”) or db/+mice. At the end of the 7-week dosing regimen, total growth rates (overall body weight gain) and average daily food intake were calculated. In addition, glucose levels were assessed in mice fasted overnight. Furthermore, blood sample analytes from mice fasted overnight were collected for measurements of tumor necrosis factor-a (TNF-α), triglycerides and glycosylated hemoglobin (HbA1c). All data are expressed as mean±SEM. For each parameter investigated, differences among all groups were compared by one-way ANOVA with post-hoc Neuman-Keuls multiple comparison test.

[3] = tested on: STZ rat model of diabetic neuropathy; experiment: Streptozotocin (STZ)-induced diabetic neuropathy, Von Frey allodynia; type: in vivo; details: 150 mg/kg i.p.
Procedure: Diabetes was induced by a 0.5 ml injection of streptozotocin (60 mg/kg) dissolved in citrate buffer (pH=6) into the tail vein of each rat. The development of diabetes was confirmed by measuring the blood glucose levels (BGL) of all animals on study day 3 (BGL>300 mg/dL). […] These animals were tested again for their BGL at study day 23.
(2S,3R)—N-2-((3-pyridinyl)methyl)-1-azabicyclo[2.2.2]oct-3-yl)-3,5-difluorobenzamide (0.1, 1 or 10 mg/kg p.o.) was administered as a solution of the hydrochloride salt in water once daily starting on study day 14 or study day 16 and continuing through study day 21 or 23, respectively. The control article gabapentin (in 0.9% saline, 150 mg/kg i.p.) was only administered on allodynia test days. Test item, vehicle or control article administration was based on evaluation of allodynia on study day 14. If allodynia was not present on study day 14, the animal was evaluated again at study day 16. Pain response was measured either on study days 14 and 21 or 16 and 23, 30 minutes after Test Item administration.
For the allodynia assessments, Von Frey filaments were used according to the methods of Chaplan and colleagues (1994). Briefly, the rats were placed in an enclosure and positioned on a metal mesh surface, but allowed to move freely. The rats' cabins were covered with red cellophane to diminish environmental distributions. The test began after cessation of exploratory behavior.
When the tip of a Von Frey fiber of given length and diameter was pressed against the skin at right angles, the force of application increases as long as the researcher continued to advance the probe until the fiber bent. After the fiber bent, the probe was advanced, causing the fiber to bend more, but without additional force being applied. The animal would indicate sensation by pulling back its paw. In the absence of a paw withdrawal response to the initially selected filament, a stronger stimulus was presented: in the event of paw withdrawal, the next weaker stimulus was chosen. In this fashion, the resulting pattern of positive and negative responses was used to determine the paw withdrawal threshold.
The set of Von Frey monofilaments provide an approximate logarithmic scale of actual force and a linear scale of perceived intensity. Below is a table showing the force (g) and its corresponding size of monofilaments.
All normally distributed data are presented as means±SEM, as well as the animals' individual values followed by a student T-test (Software: Microsoft® Excel). A p value<0.05 is considered to represent a significant difference. Due to the non-normal distribution of the allodynia data, descriptions of those data are provided as both mean (+SEM) and median values in order to represent their imprecise nature and skewed distribution.

CD-1 mice = experiment: Formalin test; type: in vivo, mouse; details: positive control, 5 mg/kg s.c.
Procedure: Subjects (adult male CD-1 mice (Charles River, Raleigh, N.C.) weighing approximately 20-25 grams) were removed from their home cage and weighed, then placed in a clear Plexiglas™ observation box for an acclimation period of 20-30 minutes. Mice were then removed from the observation chambers and (2S,3R)—N-2-((3-pyridinyl)methyl)-1-azabicyclo[2.2.2]oct-3-yl)-3,5-difluorobenzamide (as the hydrochloride salt in 0.9% saline) (1, 3 or 10 mg/kg s.c. (calculated with respect to the free base)), morphine (5 mg/kg; s.c.) or 0.9% saline vehicle was administered subcutaneously in a volume of 1 mL/kg. Mice were then returned to the chamber for the predetermined pretreatment time of 30 minutes for (2S,3R)—N-2-((3-pyridinyl)methyl)-1-azabicyclo[2.2.2]oct-3-yl)-3,5-difluorobenzamide and morphine.
The subject's assigned paw was grasped gently and formalin solution was injected into the paw intra-dermally in the middle on the dorsal side. Once injected, the subject was immediately returned to its observation chamber and a timer was started to mark the beginning of Phase I. Each subject was videotaped for the entire 40-minute session. […] The time spent licking during that 1 min interval was recorded, and the presence or absence of paw favoring was noted.
For data analyses, phase I of the test was defined as 0 to 5 minutes after formalin injection, and phase II was defined as 20 to 40 minutes after formalin injection. The time spent licking during the 1 minute intervals during those time frames was recorded and graphed as mean±S.E.M. For comparisons across treatment groups, 1-way analyses of variance (ANOVAs) were performed for each phase of the session with treatment as the […] variable. Post-hoc analyses were performed when appropriate to determine specific group differences.

Sprague-Dawley rats = experiment: Complete Freund's adjuvant (CFA)-induced thermal hyperalgesia; type: in vivo, rat; details: reference standard, 3 mg/kg s.c., 1 hour after dosing
From the text: Briefly, adult male Sprague-Dawley rats (BioLasco, Taiwan) weighing 180±20 g on receipt were randomly assigned to treatment groups of n=8 per group. […] A subject was placed within a plastic box atop an elevated glass floor and a light beam located under the glass floor was directed at the plantar surface of the right hind paw. The time required for the animal to withdraw the paw from the thermal stimulus was automatically recorded. The intensity of the light was adjusted to evoke an average group baseline latency from 12-14 seconds (pre-CFA) and a cut-off latency of 20 seconds was imposed. The latency for paw withdrawal was obtained for each rat and defined as the heat pain threshold.
Test substance, morphine and vehicle were administered by subcutaneous (s.c.) injection at time 0. The post-treatment level of thermal hyperalgesia was then measured at 60 minutes post-treatment. One-way ANOVA followed by Dunnett's test was applied for comparison between test substance treated groups and vehicle control group. Activity was considered significant at the P<0.05 level.

## O=C(O)c1ccc2ccccc2c1O [1-Hydroxy-2-Naphthoic acid]
[1]
  LogP: 3.29

## O=S(=O)(O)c1ccccc1 [Benzene sulfonic acid]
[1]
  LogP: 0.47

## O=C(O)[C@H](O)[C@@H](O)[C@H](O)[C@H](O)CO [D-Gluconic acid]
[1]
  LogP: −3.18

## O=C(N[C@@H]1C2CCN(CC2)[C@H]1Cc1cccnc1)c1cc(F)cc(F)c1.O=C(O)/C=C/C(=O)O [Fumarate mono salt]
[2]
  Aqueous Solubility: >10 mg/mL

## O=C(O)/C=C/C(=O)O [Fumaric acid]
[1]
  LogP: −0.01

## O=C(O)CNC(=O)c1ccccc1 [Hippuric acid]
[1]
  LogP: 0.31

## Cl.O=C(N[C@@H]1C2CCN(CC2)[C@H]1Cc1cccnc1)c1cc(F)cc(F)c1 [Hydrochloride mono salts]
[2]
  Aqueous Solubility: >10 mg/mL

## N[C@@H](CC(=O)O)C(=O)O [L-Aspartic acid]
[1]
  LogP: −0.67

## CCN1C[C@]2(COC(=O)c3ccccc3N3C(=O)C[C@H](C)C3=O)CC[C@H](OC)[C@@]34[C@@H]5C[C@H]6[C@H](OC)[C@@H]5[C@](O)(C[C@@H]6OC)[C@@](O)([C@@H](OC)[C@H]23)[C@@H]14 [MLA, methyllycaconitine, reference compound]
db/db mouse; FIG. 15
  Weight gain on co-administration of MLA with the difluorobenzamide: failed to show the reduced weight gain
db/db mouse; FIG. 16
  Daily average food consumption on co-administration of MLA with the difluorobenzamide: failed to show the reduced daily average food consumption
db/db mouse; FIG. 17
  Reversal of the fasting plasma glucose effect by co-administration of MLA: not reversed
db/db mouse; FIG. 18
  Effect of MLA co-administration on the reduction in glycosylated HbA1c: attenuated
db/db mouse; FIG. 19
  Effect of MLA co-administration on the TNF alpha reduction: inhibited
db/db mouse; FIG. 20
  Effect of MLA co-administration on the reduction in triglycerides: not attenuated

## O=C(O)/C=C\C(=O)O [Maleic acid]
[1]
  LogP: −0.01

## O=C(N[C@@H]1C2CCN(CC2)[C@H]1Cc1cccnc1)c1cc(F)cc(F)c1.O=P(O)(O)O [Phosphate mono salts]
[2]
  Aqueous Solubility: >10 mg/mL

## CCC(=O)O [Propionic acid]
[1]
  LogP: 0.25

## NCC1(CC(=O)O)CCCCC1 [gabapentin, reference compound]
[3]; study days 14/16
  Paw withdrawal force post treatment, median: 60 g
[3]; study days 14/16, pre treatment 22.77±3.77 g, vehicle 26.61±4.41 g
  Paw withdrawal force post treatment, mean±SEM: 45.62 ± 4.24 g
[3]; study days 21/23
  Paw withdrawal force post treatment, median: 60 g
[3]; study days 21/23, pre treatment 28.23±4.91 g, vehicle 20.46±3.31 g
  Paw withdrawal force post treatment, mean±SEM: 50.88 ± 4.12 g
[3]; positive control, all treatment days, vs pretreatment and vehicle, p<0.01
  Tactile allodynia (Von Frey): reversed the tactile allodynia significantly

## CN1CC[C@]23c4c5ccc(O)c4O[C@H]2[C@@H](O)C=C[C@H]3[C@H]1C5 [morphine, reference compound]
CD-1 mice
  Time spent licking, phase I and phase II: efficacious in both phases of the test
Sprague-Dawley rats
  Analgesic effect on CFA-induced thermal hyperalgesia: significant analgesic activity

## Cc1ccc(S(=O)(=O)O)cc1 [p-Toluene sulfonic acid]
[1]
  LogP: 0.93
